Experiments:
Thromboxane A2 receptor = molecular target: T1, Thromboxane A2 receptor (Homo sapiens, UniProt P21731)
T1 sequence (P21731 whole entry): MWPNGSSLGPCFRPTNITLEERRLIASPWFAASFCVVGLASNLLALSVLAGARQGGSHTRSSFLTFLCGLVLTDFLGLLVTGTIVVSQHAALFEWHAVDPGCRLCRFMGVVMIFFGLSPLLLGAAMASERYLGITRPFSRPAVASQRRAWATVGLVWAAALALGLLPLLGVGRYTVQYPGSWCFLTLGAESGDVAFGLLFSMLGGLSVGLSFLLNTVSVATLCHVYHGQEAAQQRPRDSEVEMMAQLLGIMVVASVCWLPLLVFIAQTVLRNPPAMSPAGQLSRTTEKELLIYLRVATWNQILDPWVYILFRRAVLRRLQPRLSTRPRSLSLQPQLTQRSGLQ

[1] = molecular target: 5-hydroxytryptamine receptor 2B (Homo sapiens, UniProt P41595); type: functional
5-hydroxytryptamine receptor 2B, sequence (P41595 whole entry): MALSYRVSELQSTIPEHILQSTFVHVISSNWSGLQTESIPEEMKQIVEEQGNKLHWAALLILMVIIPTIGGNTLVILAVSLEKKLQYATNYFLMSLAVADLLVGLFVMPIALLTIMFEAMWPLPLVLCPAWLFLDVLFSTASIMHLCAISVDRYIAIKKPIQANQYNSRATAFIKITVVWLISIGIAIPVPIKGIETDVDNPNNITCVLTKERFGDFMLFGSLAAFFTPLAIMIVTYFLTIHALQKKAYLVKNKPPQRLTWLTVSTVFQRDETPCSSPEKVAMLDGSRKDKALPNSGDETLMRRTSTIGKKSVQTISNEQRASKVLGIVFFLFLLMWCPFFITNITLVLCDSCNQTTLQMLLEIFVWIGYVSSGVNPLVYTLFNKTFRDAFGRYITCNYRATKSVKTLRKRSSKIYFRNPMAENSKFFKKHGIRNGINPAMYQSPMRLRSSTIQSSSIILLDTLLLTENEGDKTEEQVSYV

[2] = molecular target: T2, C-C chemokine receptor type 1 (Homo sapiens, UniProt P32246)
T2 sequence (P32246 whole entry): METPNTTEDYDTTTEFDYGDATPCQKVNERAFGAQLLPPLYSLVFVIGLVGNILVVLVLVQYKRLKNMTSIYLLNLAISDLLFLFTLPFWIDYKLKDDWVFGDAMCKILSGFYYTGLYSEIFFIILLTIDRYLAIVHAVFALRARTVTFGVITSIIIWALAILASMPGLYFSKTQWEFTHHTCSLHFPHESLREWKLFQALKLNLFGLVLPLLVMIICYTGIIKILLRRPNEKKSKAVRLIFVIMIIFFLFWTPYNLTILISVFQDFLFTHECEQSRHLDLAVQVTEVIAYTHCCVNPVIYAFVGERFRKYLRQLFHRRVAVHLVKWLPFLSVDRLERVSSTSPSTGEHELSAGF

Substance-K receptor = molecular target: T3, Substance-K receptor (Homo sapiens, UniProt P21452)
T3 sequence (P21452 whole entry): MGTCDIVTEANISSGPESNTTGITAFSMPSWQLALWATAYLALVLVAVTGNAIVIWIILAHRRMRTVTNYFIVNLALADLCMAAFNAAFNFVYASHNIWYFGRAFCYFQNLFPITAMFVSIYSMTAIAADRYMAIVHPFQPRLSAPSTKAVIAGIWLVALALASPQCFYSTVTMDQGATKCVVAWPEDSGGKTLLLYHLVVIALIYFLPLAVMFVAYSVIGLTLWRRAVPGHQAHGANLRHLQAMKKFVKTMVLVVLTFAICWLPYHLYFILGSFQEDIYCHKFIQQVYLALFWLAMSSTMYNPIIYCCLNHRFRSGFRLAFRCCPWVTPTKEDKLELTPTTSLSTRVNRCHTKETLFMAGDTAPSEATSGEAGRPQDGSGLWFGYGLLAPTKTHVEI

Vasopressin V1a receptor = Vasopressin V1a receptor (Homo sapiens, UniProt P37288)
Vasopressin V1a receptor, sequence (P37288 whole entry): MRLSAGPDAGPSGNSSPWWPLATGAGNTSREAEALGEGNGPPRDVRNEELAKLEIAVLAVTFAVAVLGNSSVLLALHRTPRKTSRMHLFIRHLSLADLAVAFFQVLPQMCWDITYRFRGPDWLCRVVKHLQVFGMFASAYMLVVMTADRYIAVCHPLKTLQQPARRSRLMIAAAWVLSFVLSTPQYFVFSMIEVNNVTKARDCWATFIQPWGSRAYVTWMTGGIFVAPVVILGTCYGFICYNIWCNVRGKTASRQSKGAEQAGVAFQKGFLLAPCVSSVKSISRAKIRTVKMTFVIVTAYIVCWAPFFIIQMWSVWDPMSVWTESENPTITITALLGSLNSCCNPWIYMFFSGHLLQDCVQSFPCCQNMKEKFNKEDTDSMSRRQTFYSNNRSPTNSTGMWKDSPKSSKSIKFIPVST

[3] = molecular target: T4, 5-hydroxytryptamine receptor 2C (Homo sapiens, UniProt P28335)
T4 sequence (P28335 whole entry): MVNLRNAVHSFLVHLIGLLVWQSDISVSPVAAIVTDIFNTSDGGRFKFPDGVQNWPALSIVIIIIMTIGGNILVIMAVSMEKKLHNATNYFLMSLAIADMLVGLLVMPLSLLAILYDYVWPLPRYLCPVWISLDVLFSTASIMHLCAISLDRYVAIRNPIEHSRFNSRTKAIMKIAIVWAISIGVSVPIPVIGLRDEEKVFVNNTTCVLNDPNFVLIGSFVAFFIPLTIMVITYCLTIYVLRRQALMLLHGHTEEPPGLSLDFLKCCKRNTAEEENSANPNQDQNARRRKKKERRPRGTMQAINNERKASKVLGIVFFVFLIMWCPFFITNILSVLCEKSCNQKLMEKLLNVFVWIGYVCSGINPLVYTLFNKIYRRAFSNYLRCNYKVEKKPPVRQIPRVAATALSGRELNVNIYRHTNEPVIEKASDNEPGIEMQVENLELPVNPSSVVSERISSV

Histamine H4 receptor [4] = molecular target: T5, Histamine H4 receptor (Homo sapiens, UniProt Q9H3N8); test: biochemical; type: cell-based, HEK293
T5 sequence (Q9H3N8 whole entry): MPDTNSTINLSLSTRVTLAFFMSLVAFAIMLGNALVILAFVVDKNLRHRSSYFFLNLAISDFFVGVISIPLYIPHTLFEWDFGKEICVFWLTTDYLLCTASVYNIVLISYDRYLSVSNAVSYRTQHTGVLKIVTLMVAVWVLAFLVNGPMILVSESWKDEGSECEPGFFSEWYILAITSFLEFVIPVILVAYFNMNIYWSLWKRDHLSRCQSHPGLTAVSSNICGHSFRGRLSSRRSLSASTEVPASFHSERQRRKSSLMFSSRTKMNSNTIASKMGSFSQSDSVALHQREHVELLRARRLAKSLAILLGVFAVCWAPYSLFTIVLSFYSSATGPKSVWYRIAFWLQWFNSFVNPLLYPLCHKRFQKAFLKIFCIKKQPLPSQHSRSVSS

Histamine H4 receptor [5] = molecular target: Histamine H4 receptor (Rattus norvegicus, UniProt Q91ZY1); test: biochemical; type: cell-based, HEK293
Histamine H4 receptor (Rattus norvegicus, UniProt Q91ZY1), sequence (Q91ZY1 whole entry): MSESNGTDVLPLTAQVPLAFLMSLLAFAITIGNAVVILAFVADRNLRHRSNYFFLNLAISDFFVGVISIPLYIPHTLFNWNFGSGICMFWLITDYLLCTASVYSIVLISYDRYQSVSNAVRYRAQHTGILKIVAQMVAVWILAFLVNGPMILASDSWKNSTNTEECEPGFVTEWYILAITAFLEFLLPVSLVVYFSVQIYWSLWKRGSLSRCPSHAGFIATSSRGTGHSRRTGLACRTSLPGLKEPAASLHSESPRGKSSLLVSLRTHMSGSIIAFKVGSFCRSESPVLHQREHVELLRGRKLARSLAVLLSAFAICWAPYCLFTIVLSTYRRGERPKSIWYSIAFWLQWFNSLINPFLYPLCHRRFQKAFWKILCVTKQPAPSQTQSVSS

Histamine H1 receptor = Histamine H1 receptor (Homo sapiens, UniProt P35367)
Histamine H1 receptor, sequence (P35367 whole entry): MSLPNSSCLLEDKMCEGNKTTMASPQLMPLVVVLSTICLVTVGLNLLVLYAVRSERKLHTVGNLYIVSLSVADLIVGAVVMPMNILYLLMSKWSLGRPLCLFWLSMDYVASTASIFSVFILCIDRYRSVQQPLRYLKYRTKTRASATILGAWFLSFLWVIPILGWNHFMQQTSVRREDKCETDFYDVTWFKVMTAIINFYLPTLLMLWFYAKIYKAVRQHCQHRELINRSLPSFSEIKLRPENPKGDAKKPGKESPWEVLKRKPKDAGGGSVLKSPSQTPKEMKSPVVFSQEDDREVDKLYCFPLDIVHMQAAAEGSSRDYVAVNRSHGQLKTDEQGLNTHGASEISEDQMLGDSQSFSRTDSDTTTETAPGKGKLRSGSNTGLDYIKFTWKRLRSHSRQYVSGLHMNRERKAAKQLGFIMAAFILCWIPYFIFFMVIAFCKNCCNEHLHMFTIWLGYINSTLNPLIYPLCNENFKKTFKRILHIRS

Histamine H2 receptor = Histamine H2 receptor (Homo sapiens, UniProt P25021)
Histamine H2 receptor, sequence (P25021 whole entry): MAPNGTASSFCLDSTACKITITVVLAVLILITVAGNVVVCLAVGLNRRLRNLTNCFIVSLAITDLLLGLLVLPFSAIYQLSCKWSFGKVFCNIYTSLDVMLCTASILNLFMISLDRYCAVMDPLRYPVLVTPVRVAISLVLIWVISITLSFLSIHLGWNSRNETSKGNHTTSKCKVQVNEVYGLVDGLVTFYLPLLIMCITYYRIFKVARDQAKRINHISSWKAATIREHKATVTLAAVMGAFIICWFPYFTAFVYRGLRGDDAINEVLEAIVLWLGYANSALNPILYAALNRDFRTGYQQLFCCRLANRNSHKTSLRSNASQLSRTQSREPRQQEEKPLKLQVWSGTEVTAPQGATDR

Histamine H3 receptor [6] = molecular target: Histamine H3 receptor (Homo sapiens, UniProt Q9Y5N1)
Histamine H3 receptor (Homo sapiens, UniProt Q9Y5N1), sequence (Q9Y5N1 whole entry): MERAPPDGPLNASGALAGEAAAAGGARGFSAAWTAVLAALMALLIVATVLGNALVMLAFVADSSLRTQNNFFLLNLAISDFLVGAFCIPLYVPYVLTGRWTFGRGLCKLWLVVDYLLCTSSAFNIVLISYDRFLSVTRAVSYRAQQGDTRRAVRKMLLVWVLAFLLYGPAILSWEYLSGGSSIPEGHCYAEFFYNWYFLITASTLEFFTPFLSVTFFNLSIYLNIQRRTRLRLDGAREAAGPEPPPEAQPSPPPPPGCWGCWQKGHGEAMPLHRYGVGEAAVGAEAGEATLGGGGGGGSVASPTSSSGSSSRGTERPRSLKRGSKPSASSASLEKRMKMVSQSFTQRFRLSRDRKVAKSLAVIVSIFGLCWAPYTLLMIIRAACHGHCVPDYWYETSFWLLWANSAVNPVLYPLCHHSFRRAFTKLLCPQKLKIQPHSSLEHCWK

Histamine H3 receptor [7] = molecular target: Histamine H3 receptor (Rattus norvegicus, UniProt Q9QYN8)
Histamine H3 receptor (Rattus norvegicus, UniProt Q9QYN8), sequence (Q9QYN8 whole entry): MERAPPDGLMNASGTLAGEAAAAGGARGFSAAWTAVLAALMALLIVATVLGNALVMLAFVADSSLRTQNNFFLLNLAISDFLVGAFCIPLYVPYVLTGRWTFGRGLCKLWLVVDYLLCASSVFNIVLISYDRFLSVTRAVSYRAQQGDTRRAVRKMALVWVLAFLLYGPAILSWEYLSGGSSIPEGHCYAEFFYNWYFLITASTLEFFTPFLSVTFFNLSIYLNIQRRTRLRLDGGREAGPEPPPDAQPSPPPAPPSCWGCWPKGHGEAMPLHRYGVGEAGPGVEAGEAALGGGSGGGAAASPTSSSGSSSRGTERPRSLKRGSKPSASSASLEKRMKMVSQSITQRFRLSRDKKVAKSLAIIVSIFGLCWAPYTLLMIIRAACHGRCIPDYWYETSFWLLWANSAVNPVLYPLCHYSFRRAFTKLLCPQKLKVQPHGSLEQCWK

Mus musculus [8] = species: Mus musculus; test: animal or person; type: functional; details: CD-1(ICR), ip
Mus musculus [9] = species: Mus musculus; type: functional, organism-based, BALB/c
Rattus norvegicus [10] = species: Rattus norvegicus; test: animal or person; type: functional; details: ip
Histamine H4 receptor [11] = molecular target: T5, Histamine H4 receptor; details: HEK293
[12] = molecular target: Histamine H4 receptor (Rattus norvegicus) (UniProt Q91ZY1)
Histamine H4 receptor (Rattus norvegicus), sequence (Q91ZY1 whole entry): as the sequence (Q91ZY1 whole entry) above

[13] = molecular target: T6, Histamine H4 receptor (Mus musculus) (UniProt Q91ZY2)
T6 sequence (whole entry): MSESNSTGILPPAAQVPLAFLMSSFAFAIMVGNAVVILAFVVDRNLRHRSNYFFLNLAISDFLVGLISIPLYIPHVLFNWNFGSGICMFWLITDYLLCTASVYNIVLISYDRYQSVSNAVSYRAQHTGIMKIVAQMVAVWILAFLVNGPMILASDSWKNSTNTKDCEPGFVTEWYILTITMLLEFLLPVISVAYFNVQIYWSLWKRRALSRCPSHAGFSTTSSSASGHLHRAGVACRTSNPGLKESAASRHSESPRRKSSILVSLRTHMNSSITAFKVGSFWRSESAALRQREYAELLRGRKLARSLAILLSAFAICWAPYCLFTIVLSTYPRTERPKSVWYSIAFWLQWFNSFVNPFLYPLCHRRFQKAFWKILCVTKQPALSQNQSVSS

Mus musculus [14] = species: Mus musculus; details: CD-1(ICR), in vivo, ip, 0.3 umol/kg
Rattus norvegicus [15] = species: Rattus norvegicus; details: in vivo, ip, 30 umol/kg
Rattus norvegicus [16] = species: Rattus norvegicus; details: in vivo, ip, 100 umol/kg
in vivo [17] = details: Sprague-Dawley, rat, ip, 10 mg/kg
in vivo [18] = details: Sprague-Dawley, rat, ip, 10 mg/kg; remark: listed apart in the source
in vivo [19] = details: Sprague-Dawley, rat, ip, 10 mg/kg; remark: listed apart in the source
in vivo [20] = details: Sprague-Dawley, rat, ip, 10 mg/kg; remark: listed apart in the source
in vivo [21] = details: Sprague-Dawley, rat, po, 10 mg/kg
in vivo [22] = details: Sprague-Dawley, rat, po, 10 mg/kg; remark: listed apart in the source
in vivo [23] = details: Sprague-Dawley, rat, po, 10 mg/kg; remark: listed apart in the source
in vivo [24] = details: Sprague-Dawley, rat, po, 10 mg/kg; remark: listed apart in the source
in vitro = details: Sprague-Dawley, rat, plasma
[25] = molecular target: T7, Muscarinic acetylcholine receptor M5 (Homo sapiens, UniProt P08912)
T7 sequence (P08912 whole entry): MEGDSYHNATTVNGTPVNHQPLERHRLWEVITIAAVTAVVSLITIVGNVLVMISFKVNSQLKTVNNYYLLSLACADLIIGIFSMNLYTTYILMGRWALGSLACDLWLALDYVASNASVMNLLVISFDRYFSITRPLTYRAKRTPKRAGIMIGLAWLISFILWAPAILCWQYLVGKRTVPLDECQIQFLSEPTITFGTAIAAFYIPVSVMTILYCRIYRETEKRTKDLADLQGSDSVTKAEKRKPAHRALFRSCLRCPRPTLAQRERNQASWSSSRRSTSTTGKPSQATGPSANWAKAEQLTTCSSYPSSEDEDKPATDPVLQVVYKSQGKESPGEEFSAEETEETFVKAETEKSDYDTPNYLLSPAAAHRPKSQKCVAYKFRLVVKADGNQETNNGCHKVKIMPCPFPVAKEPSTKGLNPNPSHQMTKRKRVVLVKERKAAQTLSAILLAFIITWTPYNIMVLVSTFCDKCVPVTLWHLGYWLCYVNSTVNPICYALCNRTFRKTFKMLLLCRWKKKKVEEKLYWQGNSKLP

[26] = molecular target: Small conductance calcium-activated potassium channel protein 1 (Homo sapiens, UniProt Q92952)
Small conductance calcium-activated potassium channel protein 1, sequence (Q92952 whole entry): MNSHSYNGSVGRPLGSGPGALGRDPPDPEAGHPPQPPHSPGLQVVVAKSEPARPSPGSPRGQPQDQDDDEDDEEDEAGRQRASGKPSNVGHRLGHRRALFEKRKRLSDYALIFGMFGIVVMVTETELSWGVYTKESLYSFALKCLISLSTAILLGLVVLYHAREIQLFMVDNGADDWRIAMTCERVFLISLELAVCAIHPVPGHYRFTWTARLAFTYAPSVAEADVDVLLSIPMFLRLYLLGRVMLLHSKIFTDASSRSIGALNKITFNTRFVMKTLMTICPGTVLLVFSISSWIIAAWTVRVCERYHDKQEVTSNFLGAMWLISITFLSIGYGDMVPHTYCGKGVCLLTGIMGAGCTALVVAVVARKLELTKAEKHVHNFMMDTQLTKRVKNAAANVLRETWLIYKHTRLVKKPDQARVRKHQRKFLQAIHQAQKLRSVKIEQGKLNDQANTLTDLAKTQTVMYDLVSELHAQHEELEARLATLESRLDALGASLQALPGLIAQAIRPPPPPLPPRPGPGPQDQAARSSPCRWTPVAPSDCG

[27] = molecular target: T4, 5-hydroxytryptamine receptor 2C; remark: listed apart in the source

CCCCC[C@H](O)/C=C/[C@H]1C2COC(C2)[C@@H]1C/C=C\CCCC(=O)O (some centres not stated)
IC50 (Thromboxane A2 receptor): 37 nM | Ki (Thromboxane A2 receptor): 16 nM

COc1cc(CC(C)N)c(OC)cc1I (racemic)
IC50 [1]: 3.5 nM | Ki [1]: 3.5 nM

Nc1nc2c(c(N3CCNCC3)n1)CCC1=C2[C@@H]2CCCC[C@@H]2O1 (relative stereo)
IC50 [2]: 0.087 nM | Ki [2]: 0.043 nM | IC50 (Substance-K receptor): 5.7 nM | Ki (Substance-K receptor): 3.1 nM | IC50 (Vasopressin V1a receptor): 3.9 nM | Ki (Vasopressin V1a receptor): 2.4 nM | IC50 [3]: 11700 nM | Ki (Histamine H4 receptor [4]): 5.75 nM | Ki (Histamine H4 receptor [5]): 3.39 nM | Ki (Histamine H1 receptor): 3550 nM | Ki (Histamine H2 receptor): > 9120 nM | Ki (Histamine H3 receptor [6]): 933 nM | Ki (Histamine H3 receptor [7]): 13.5 nM | ED50 (Mus musculus [8]): 0.36 µmol/kg | IC50 (Mus musculus [9]): 125 µmol/kg | ED50 (Rattus norvegicus [10]): 42 µmol/kg | pKb (Histamine H4 receptor [11]): 8.33 | pKb [12]: 8.3 | pKb [13]: 8.2 | Cp (Mus musculus [14]): 15 ng/mL | Cp (Rattus norvegicus [15]): 610 ng/mL | Cp (Rattus norvegicus [16]): 2900 ng/mL | bioavailability (in vivo [17]): 72% | half-life (in vivo [18]): 4.7 h | Cmax (in vivo [19]): 1730 nM | Tmax (in vivo [20]): 0.25 h | bioavailability (in vivo [21]): 26% | half-life (in vivo [22]): 3.7 h | Cmax (in vivo [23]): 300 nM | Tmax (in vivo [24]): 1.5 h | fraction unbound (in vitro): 0.41

C[N+]1(C)CCC(OC(=O)C(c2ccccc2)c2ccccc2)CC1 [4-DAMP]
IC50 [25]: 0.83 nM | Ki [25]: 0.42 nM

CC(C)C[C@@H]1NC(=O)[C@H](C)NC(=O)[C@H]([C@@H](C)O)NC(=O)[C@H](CCC(=O)O)NC(=O)[C@@H]2CCCN2C(=O)[C@H](C)NC(=O)[C@H](CCCCN)NC(=O)[C@@H]2CSSC[C@@H](C(=O)N[C@@H](CCC(N)=O)C(=O)N[C@@H](CCC(N)=O)C(=O)N[C@@H](Cc3cnc[nH]3)C(N)=O)NC(=O)[C@H](CCCNC(=N)N)NC(=O)[C@H](CCCNC(=N)N)NC(=O)[C@H](C)NC(=O)[C@H](CSSC[C@H](N)C(=O)N[C@@H](CC(N)=O)C(=O)N2)NC1=O [APAMIN]
IC50 [26]: 0.014 nM | Ki [26]: 0.0068 nM

CN1CCN(C(=O)c2cc3cc(Cl)ccc3[nH]2)CC1 [JNJ-7777120]
Ki (Histamine H2 receptor): > 8510 nM

COc1cc(OC)c(C(=O)CCCCN2CCC3(CC2)NC(=O)NC3=O)cc1NS(=O)(=O)c1ccc(C(F)(F)F)cc1 [RS-102,221]
IC50 [27]: 8.3 nM | Ki [27]: 3.9 nM

— ChEMBL document CHEMBL1140203, “cis-4-(Piperazin-1-yl)-5,6,7a,8,9,10,11,11a-octahydrobenzofuro[2,3-h]quinazolin-2-amine (A-987306), a new histamine H4R antagonist that blocks pain responses against carrageenan-induced hyperalgesia” (J Med Chem, 2008)
